Source: patent US12104176B2, “Efficient cell culture system for hepatitis C virus genotype 6A” (priority 2018, dated 2024)
pEC50: −log10 of the molar value. Where two headings read alike, the source gives them in different places. Marks after values point to notes of the source that are not given here.

Tests used:
HK6a (6a) = experiment: Concentration-response treatment of infected Huh7.5 cells, HK6a full-length virus; conditions: for EC50: Hepatitis C virus, Huh7.5, read-out: EC50, nM (95% CI), HK6a (6a); for Fold to TN, HK6a (6a): fold change in EC50 compared to TN
Method: (§1) Huh7.5 cells were seeded in 96-well plates and then infected with the indicated viruses. TN (1a) was used as a comparative control. 24 h after infection, cells were treated with the indicated NS5A inhibitor for 48 h. Values are means of triplicates±SEM. Concentration-response curves were calculated as previously described^26.
(§2) All concentration-response treatment experiments were performed using established methods^16,18,26. For half-maximal effective concentration (EC50) value calculations, a sigmoidal concentration-response curve was fitted using GraphPad Prism 6^18,26.

HK2 (6a) = conditions: for EC50: Hepatitis C virus, Huh7.5, read-out: EC50, nM (95% CI), HK2 (6a); for Fold to TN, HK2 (6a): fold change in EC50 compared to TN
Method: as §1, §2

TN (1a) = experiment: Concentration-response treatment of infected Huh7.5 cells, TN (1a) control virus; conditions: Hepatitis C virus, Huh7.5, read-out: EC50, nM (95% CI), TN (1a)
Method: as §1, §2

[1] = tested on: HK6a-VELesc/PIB(10 nM)esc, L28S + L31V (NS5A); type: cell-based, HCV genotype 6a; conditions: HK6a-VELesc/PIB(10 nM)esc (L28S+L31V) vs original HK6a
HK2-VELesc, L31V (NS5A) = type: cell-based, HCV genotype 6a; conditions: HK2-VELesc vs original HK2
[2] = tested on: HK6a-VELesc/PIB(3 nM)esc, V21A + L28S + L31V (NS5A); type: cell-based, HCV genotype 6a; conditions: HK6a-VELesc/PIB(3 nM)esc vs original HK6a
[3] = tested on: HK6a full-length virus (original); conditions: for day from which no HCV-antigen positive cells were detectable: HK6a original virus; for outcome of long-term treatment (resistance selection) / outcome of long-term treatment: HK6a; for outcome of long-term treatment: velpatasvir (10 nM) and sofosbuvir (570 nM), individually or combined
Method: Long-term treatment was performed for HK6a viruses as described in Materials and Methods. (A): Percentage HCV-antigen positive cells determined by evaluation of Core/NS5A-antigen positive versus total number of cells during treatment (y-axis) at the indicated time points (x-axis) (top panel). […] Changes in HCV RNA levels (y-axis) related to day 0 (treatment initiated), were determined from supernatants at corresponding time-points (x-axis) (bottom panel)^18. (B-D): Combination treatment of sofosbuvir (570 nM) and different concentrations of velpatasvir [0.1(10x−EC50), 1(100x−EC50), 10(1000x−EC50) nM], were performed with HK6a escape viruses compared with original viruses.
For long-term DAA treatments, Huh7.5 cells were infected with second-passage supernatants of HK2(H77_3′XSLI)-17m or HK6a(FL)-12m viruses (Table 1, FIG. 1F). […] Treatments were carried out in T25 flasks, and drugs were diluted in medium at the indicated concentration. Drugs were added every 2-3 days when cells were split. HCV RNA levels were determined using supernatants collected at indicated time points as described^18. The percentage of HCV positive cells, at indicated time-points, was determined by immunostaining, and supernatants were collected and stored at −80° C. for further analysis. At day 25 after initiation of treatment, cultures with no detectable HCV positive cells were divided into 2 flasks, and one of the replicates was cultured without drug. These untreated cultures were followed for 2 weeks and if no HCV positive cells were detected by immunostaining, the infection was considered cleared.

[4] = tested on: HK6a-SOFesc, S282T (NS5B); type: cell-based, HCV genotype 6a; conditions: HK6a-SOFesc vs original HK6a
HK6a-VELesc, L31V (NS5A) = type: cell-based, HCV genotype 6a; conditions: HK6a-VELesc vs original HK6a
[5] = tested on: HK6a-SOFesc/VELesc, S282T (NS5B)/L28S (NS5A); type: cell-based, HCV genotype 6a; conditions: HK6a-SOFesc/VELesc (L28S) vs original HK6a
[6] = tested on: HK6a velpatasvir escape virus harboring NS5A-L31V; type: cell-based; conditions: pibrentasvir 0.3, 3 and 10 nM
HK2cc = experiment: microbe, parasite or virus in culture; type: cell-based; conditions: Hepatitis C virus; HK2cc in separate experiment of FIG. 4
HK2-SOFesc, S282T (NS5B) = type: cell-based, HCV genotype 6a; conditions: HK2-SOFesc vs original HK2
[7] = tested on: escape viruses with RAS NS5B-S282T (HK2 and HK6a); type: cell-based, HCV genotype 6a; conditions: escape viruses generated in drug-free cultures, FIGS. 4A, B
[8] = tested on: HK2cc recombinant viruses with NS5B-S282T
[9] = tested on: velpatasvir escape viruses of HK2 and HK6a (NS5A-L31V); type: cell-based, HCV genotype 6a; conditions: drug-free passage stocks of HK2 and HK6a escape viruses, FIG. 3A
[10] = Huh7.5 cells, treated 24 h after infection for 48 h, ni = not inhibited at highest concentration used

| Compound | EC50 (HK6a (6a)) | Fold to TN, HK6a (6a) (HK6a (6a)) | EC50 (HK2 (6a)) | Fold to TN, HK2 (6a) (HK2 (6a)) | EC50 (TN (1a)) | other results |
| --- | --- | --- | --- | --- | --- | --- |
| COc1ccc2c(c1)[C@@H]1C[C@]1(C(=O)N1[C@@H]3CC[C@H]1CN(C)C3)Cn1c-2c(C2CCCCC2)c2ccc(C(=O)NS(=O)(=O)N(C)C)cc21 [Beclabuvir] | 34.1 nM | 6.4 fold | 28.1 nM | 5.3 fold | 5.3 nM |  |
| COC(=O)N[C@H](C(=O)N1CCC[C@H]1c1nc(-c2ccc(-c3ccc(-c4c[nH]c([C@@H]5CCCN5C(=O)[C@@H](NC(=O)OC)C(C)C)n4)cc3)cc2)c[nH]1)C(C)C [Daclatasvir] | 0.014 nM |  |  |  | 0.019 nM |  |
| COc1c(-c2ccc3cc(NS(C)(=O)=O)ccc3c2)cc(-n2ccc(=O)[nH]c2=O)cc1C(C)(C)C [Dasabuvir] | 434 nM | 12.2 fold | 267 nM | 7.5 fold | 35.5 nM |  |
| COC(=O)N[C@H](C(=O)N1CCC[C@H]1c1nc(-c2ccc3c(c2)O[C@@H](c2ccccc2)n2c-3cc3cc(-c4c[nH]c([C@@H]5CCCN5C(=O)[C@@H](NC(=O)OC)C(C)C)n4)ccc32)c[nH]1)C(C)C [Elbasvir] | 0.009 nM | 1.5 fold | 0.017 nM | 2.8 fold | 0.006 nM |  |
| CNC(=O)c1c(-c2ccc(F)cc2)oc2cc(N(CCO)S(C)(=O)=O)c(C3CC3)cc12 [HCV-796] | 131 nM | 5.0 fold | 24 nM | 0.9 fold | 26 nM |  |
| COC(=O)N[C@H](C(=O)N1CC2(CC2)C[C@H]1c1nc(-c2ccc3c(c2)C(F)(F)c2cc(-c4ccc5[nH]c([C@@H]6[C@H]7CC[C@H](C7)N6C(=O)[C@@H](NC(=O)OC)C(C)C)nc5c4)ccc2-3)c[nH]1)C(C)C [Ledipasvir] | 0.346 nM | 69.2 fold | 0.228 nM | 45.6 fold | 0.005 nM |  |
| CC(C)(C)C#Cc1cc(N(C(=O)[C@H]2CC[C@H](C)CC2)[C@H]2CC[C@H](O)CC2)c(C(=O)O)s1 [Lomibuvir] | > 4000 nM |  | > 4000 nM |  | 27.6 nM | EC50, nM (95% CI), HK6a (6a) (HK6a (6a); [10]): ni; EC50, nM (95% CI), HK2 (6a) (HK2 (6a); [10]): ni |
| CC(C)OC(=O)[C@@H](C)N[P@@](=O)(OC[C@H]1O[C@@H](n2ccc(=O)[nH]c2=O)[C@](C)(Cl)[C@@H]1O)Oc1ccccc1 [MK-3682] | 522 nM | 1.3 fold | 370 nM | 0.9 fold | 392 nM |  |
| COC(=O)N[C@H](C(=O)N1CCC[C@H]1C(=O)Nc1ccc([C@@H]2CC[C@@H](c3ccc(NC(=O)[C@@H]4CCCN4C(=O)[C@@H](NC(=O)OC)C(C)C)cc3)N2c2ccc(C(C)(C)C)cc2)cc1)C(C)C [Ombitasvir] | 2.2 nM | 1100.0 fold | 0.6 nM | 300.0 fold | 0.002 nM |  |
| COC(=O)N[C@H](C(=O)N1CCC[C@H]1c1nc2cc([C@H]3CC[C@H](c4cc5nc([C@@H]6CCCN6C(=O)[C@@H](NC(=O)OC)[C@@H](C)OC)[nH]c5cc4F)N3c3cc(F)c(N4CCC(c5ccc(F)cc5)CC4)c(F)c3)c(F)cc2[nH]1)[C@@H](C)OC [Pibrentasvir] | 0.004 nM | 1.0 fold | 0.002 nM | 0.6 fold | 0.004 nM | Fold-change EC50 to original virus [1]: 79.000 fold; Fold-change EC50 to original virus (HK2-VELesc, L31V (NS5A)): 1 fold; Fold-change EC50 to original virus [2]: 85.500 fold; day from which no HCV-antigen positive cells were detectable ([3]; pibrentasvir 0.3 nM): 7 days; day from which no HCV-antigen positive cells were detectable ([3]; pibrentasvir 3 nM): 5 days; day from which no HCV-antigen positive cells were detectable ([3]; pibrentasvir 10 nM): 5 days; outcome of long-term treatment (resistance selection) ([3]; PIB 0.3 nM): Infection cleared; outcome of long-term treatment (resistance selection) ([3]; PIB 3 nM): Infection cleared; outcome of long-term treatment (resistance selection) ([3]; PIB 10 nM): Infection cleared; Fold-change EC50 to original virus [4]: 1 fold; Fold-change EC50 to original virus (HK6a-VELesc, L31V (NS5A)): 1 fold; Fold-change EC50 to original virus [5]: 250 fold; outcome of long-term treatment [6]: escaped the treatment at all concentrations |
| CC(C)OC(=O)[C@H](C)N[P@](=O)(OC[C@H]1O[C@@H](n2ccc(=O)[nH]c2=O)[C@](C)(F)[C@@H]1O)Oc1ccccc1 [Sofosbuvir] | 513 nM | 1.1 fold | 393 nM | 0.8 fold | 481 nM | pEC50 (HK2cc): 6.19; Fold-change EC50 to original virus (HK2-SOFesc, S282T (NS5B)): 7.9 fold; outcome of long-term treatment [3]: failed to fully suppress the infection; fold increase in EC50 [7]: ≥ 8 fold; Fold-change EC50 to original virus [4]: ≥8^d fold; fold lower sensitivity compared with HK2cc [8]: 3 to 5 fold |
| COC[C@H]1C[C@@H](c2nc(-c3ccc4c(c3)COc3cc5c(ccc6nc([C@@H]7CC[C@H](C)N7C(=O)[C@@H](NC(=O)OC)C(C)C)[nH]c65)cc3-4)c[nH]2)N(C(=O)[C@H](NC(=O)OC)c2ccccc2)C1 [Velpatasvir] | 0.011 nM | 2.2 fold | 0.007 nM | 1.4 fold | 0.005 nM | Fold-change EC50 to original virus [1]: > 899.000 fold; Fold-change EC50 to original virus ([1]; listed as VEL): ≥899.214^d fold; Fold-change EC50 to original virus (HK2-VELesc, L31V (NS5A)): 3066 fold; Fold-change EC50 to original virus [2]: ≥992.928^d fold; outcome of long-term treatment [3]: failed to fully suppress the infection; fold increase in EC50 in comparison with the pre-treatment virus [9]: 2- to 3 thousand; Fold-change EC50 to original virus [4]: 1 fold; Fold-change EC50 to original virus (HK6a-VELesc, L31V (NS5A)): 2384 fold; Fold-change EC50 to original virus [5]: ~58.000 fold; Fold-change EC50 to original virus ([5]; listed as VEL): 58.105 fold |
